The text below walks through data of patent US12485169B2, “Compounds” (GREY WOLF THERAPEUTICS LIMITED, priority 2018, dated 2025).

T1 sequence (Q9NZ08 37-941): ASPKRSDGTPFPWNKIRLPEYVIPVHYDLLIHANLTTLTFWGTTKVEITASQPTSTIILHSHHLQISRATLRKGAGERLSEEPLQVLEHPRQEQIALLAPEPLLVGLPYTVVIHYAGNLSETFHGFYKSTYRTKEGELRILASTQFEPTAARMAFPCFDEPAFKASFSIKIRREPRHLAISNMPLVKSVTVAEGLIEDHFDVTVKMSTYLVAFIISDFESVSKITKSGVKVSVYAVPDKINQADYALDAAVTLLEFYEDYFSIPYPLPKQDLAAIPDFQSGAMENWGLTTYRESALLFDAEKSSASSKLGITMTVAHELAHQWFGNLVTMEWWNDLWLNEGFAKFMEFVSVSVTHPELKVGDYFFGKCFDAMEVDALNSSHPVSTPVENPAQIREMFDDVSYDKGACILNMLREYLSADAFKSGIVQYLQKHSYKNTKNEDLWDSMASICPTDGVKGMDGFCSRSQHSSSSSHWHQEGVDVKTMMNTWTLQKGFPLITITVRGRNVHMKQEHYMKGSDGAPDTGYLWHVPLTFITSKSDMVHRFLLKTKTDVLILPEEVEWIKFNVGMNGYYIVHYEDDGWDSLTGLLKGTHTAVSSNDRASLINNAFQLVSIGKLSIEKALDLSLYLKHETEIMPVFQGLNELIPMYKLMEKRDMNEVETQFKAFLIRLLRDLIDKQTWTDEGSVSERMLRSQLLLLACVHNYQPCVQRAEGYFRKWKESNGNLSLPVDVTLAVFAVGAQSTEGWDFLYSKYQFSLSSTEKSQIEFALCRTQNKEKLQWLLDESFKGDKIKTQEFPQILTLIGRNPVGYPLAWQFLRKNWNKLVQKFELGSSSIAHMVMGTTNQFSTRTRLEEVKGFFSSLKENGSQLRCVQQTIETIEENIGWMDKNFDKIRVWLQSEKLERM

This assay addresses T1, Purified ERAP1 (37-941)-10His (ERAP1) (Homo sapiens, UniProt Q9NZ08).
T1 construct: Purified ERAP1 (37-941)-10His (ERAP1)
In words: ERAP1 mediated hydrolysis of an amide substrate (10-mer inhibition assay), biochemical system. The settings on record: 10-mer substrate, 23° C., 1 h, excitation 279 nm / emission 355 nm; read-out: IC50 vs Decapeptide WRVYEKC(Dnp)ALK-acid (where Dnp is Dinitrophenyl maleimide) (10-mer).
Regarding `CCc1ccc(C(=O)O)cc1S(=O)(=O)Nc1cc(C(F)(F)F)c(Br)cc1N1CCCCC1` [Example 294, 3-(N-(4-bromo-2-(piperidin-1-yl)-5-(trifluoromethyl)phenyl)sulfamoyl)-4-ethylbenzoic acid], the IC50 is less than 500 nM.

As for `N#Cc1ccc(N2CCCCC2)c(NS(=O)(=O)c2cc(C(=O)O)ccc2C2CC2)c1` [Example 295, 3-(N-(5-cyano-2-(piperidin-1-yl)phenyl)sulfamoyl)-4-cyclopropylbenzoic acid], the IC50 is less than 500 nM.

Regarding `CS(=O)(=O)c1ccc(N2CCCCC2)c(NS(=O)(=O)c2cc(C(=O)O)ccc2C2CC2)c1` [Example 296, 4-cyclopropyl-3-(N-(5-(methylsulfonyl)-2-(piperidin-1-yl)phenyl)sulfamoyl)benzoic acid], the IC50 was less than 500 nM.

As for `CCc1ccc(C(=O)O)cc1S(=O)(=O)Nc1cc(-c2cnoc2)ccc1N1CCCCC1` [Example 297, 4-ethyl-3-(N-(5-(isoxazol-4-yl)-2-(piperidin-1-yl)phenyl)sulfamoyl)benzoic acid], the IC50 was less than 500 nM.

`CCc1ccc(C(=O)O)cc1S(=O)(=O)Nc1cc(-c2c[nH]nn2)ccc1N1CCCCC1` [Example 298, 4-ethyl-3-(N-(2-(piperidin-1-yl)-5-(1,2,3-triazol-4-yl)phenyl)sulfamoyl)benzoic acid]: the IC50 is less than 500 nM.

Take `CCc1ccc(C(=O)O)cc1S(=O)(=O)Nc1cc(-c2nnco2)ccc1N1CCCCC1` [Example 299]: the IC50 was less than 500 nM.

With `CCc1ccc(C(=O)O)cc1S(=O)(=O)Nc1cc(-c2ccno2)ccc1N1CCCCC1` [Example 300, 4-ethyl-3-(N-(5-(isoxazol-5-yl)-2-(piperidin-1-yl)phenyl)sulfamoyl)benzoic acid], the IC50 was less than 500 nM.

With `CCc1ccc(C(=O)O)cc1S(=O)(=O)Nc1cc(-c2cn[nH]c2)ccc1N1CCCCC1` [Example 301, 4-ethyl-3-(N-(2-(piperidin-1-yl)-5-(pyrazol-4-yl)phenyl)sulfamoyl)benzoic acid], the IC50 was less than 500 nM.

For the molecule `CCc1ccc(C(=O)O)cc1S(=O)(=O)Nc1cc(-c2ccnnc2)ccc1N1CCCCC1` [Example 302, 4-ethyl-3-(N-(2-(piperidin-1-yl)-5-(pyridazin-4-yl)phenyl)sulfamoyl)benzoic acid], the half-inhibitory concentration (IC50) is less than 500 nM.

`CCc1ccc(C(=O)O)cc1S(=O)(=O)Nc1cc(-c2cnoc2C)c(C)cc1N1CCCCC1` [Example 303, 4-ethyl-3-(N-(4-methyl-5-(5-methylisoxazol-4-yl)-2-(piperidin-1-yl)phenyl)sulfamoyl)benzoic acid]: the IC50 is less than 500 nM.

With `CCc1ccc(C(=O)O)cc1S(=O)(=O)Nc1cc(-c2cnoc2C)c(F)cc1N1CCCCC1` [Example 304, 4-ethyl-3-(N-(4-fluoro-5-(5-methylisoxazol-4-yl)-2-(piperidin-1-yl)phenyl)sulfamoyl)benzoic acid], the IC50 was less than 500 nM.

Consider `CCc1ccc(C(=O)O)cc1S(=O)(=O)Nc1c(N2CCCCC2)ccc(-c2cnoc2C)c1F` [Example 305, 4-ethyl-3-(N-(2-fluoro-3-(5-methylisoxazol-4-yl)-6-(piperidin-1-yl)phenyl)sulfamoyl)benzoic acid], for which the concentration for half-maximal inhibition (IC50) is less than 500 nM.

`CCc1ccc(C(=O)O)cc1S(=O)(=O)Nc1cc(-c2cnoc2C)c(Cl)cc1N1CCCCC1` [Example 306, 4-ethyl-3-(N-(4-Chloro-5-(5-methylisoxazol-4-yl)-2-(piperidin-1-yl)phenyl)sulfamoyl)benzoic acid]: the IC50 is less than 500 nM.

In the case of `CCc1ccc(C(=O)O)cc1S(=O)(=O)Nc1cc(S(C)(=O)=O)ccc1N1CCC(F)(F)CC1` [Example 308, 3-(N-(2-(4,4-difluoropiperidin-1-yl)-5-(methylsulfonyl)phenyl)sulfamoyl)-4-ethylbenzoic acid], the IC50 was less than 500 nM.

For `CS(=O)(=O)c1ccc(N2CCC(F)(F)CC2)c(NS(=O)(=O)c2cc(C(=O)O)ccc2C2CC2)c1` [Example 309, 4-cyclopropyl-3-(N-(2-(4,4-difluoropiperidin-1-yl)-5-(methylsulfonyl)phenyl)sulfamoyl)benzoic acid], the IC50 is less than 500 nM.

In the case of `N#Cc1ccc(N2CCC(F)(F)CC2)c(NS(=O)(=O)c2cc(C(=O)O)ccc2C2CC2)c1` [Example 310, 3-(N-(5-cyano-2-(4,4-difluoropiperidin-1-yl)phenyl)sulfamoyl)-4-cyclopropylbenzoic acid], the 50% inhibitory concentration (IC50) was less than 500 nM.

Take `CCc1ccc(C(=O)O)cc1S(=O)(=O)Nc1cc(C#N)ccc1N1CCC[C@@H](F)C1` [Example 311, I-3-(N-(5-cyano-2-(3-fluoropiperidin-1-yl)phenyl)sulfamoyl)-4-ethylbenzoic]: the IC50 is less than 500 nM.

For the molecule `N#Cc1ccc(N2CCC[C@@H](F)C2)c(NS(=O)(=O)c2cc(C(=O)O)ccc2C2CC2)c1` [Example 312, I-3-(N-(5-cyano-2-(3-fluoropiperidin-1-yl)phenyl)sulfamoyl)-4-cyclopropylbenzoic acid], the IC50 is less than 500 nM.

On to `CCc1ccc(C(=O)O)cc1S(=O)(=O)Nc1cc(S(C)(=O)=O)ccc1N1CCCC(F)(F)C1` [Example 313, 3-(N-(2-(3,3-difluoropiperidin-1-yl)-5-(methylsulfonyl)phenyl)sulfamoyl)-4-ethylbenzoic acid], for which the half-inhibitory concentration (IC50) is less than 500 nM.

For the molecule `O=C(O)c1ccc(C2CC2)c(S(=O)(=O)Nc2cc(C(F)(F)F)ccc2N2CCC[C@@H](O)C2)c1` [Example 314, I-4-cyclopropyl-3-(N-(2-(3-hydroxypiperidin-1-yl)-5-(trifluoromethyl)phenyl)sulfamoyl)benzoic acid], the IC50 is less than 500 nM.

With `N#CC1CCN(c2ccc(C(F)(F)F)cc2NS(=O)(=O)c2cc(C(=O)O)ccc2C2CC2)CC1` [Example 315, 3-(N-(2-(4-cyanopiperidin-1-yl)-5-(trifluoromethyl)phenyl)sulfamoyl)-4-cyclopropylbenzoic acid], the half-maximal inhibitory concentration (IC50) is less than 500 nM.

For `N#Cc1ccc(N2CCCC(F)(F)C2)c(NS(=O)(=O)c2cc(C(=O)O)ccc2C2CC2)c1` [Example 316, 3-(N-(5-cyano-2-(3,3-difluoropiperidin-1-yl)phenyl)sulfamoyl)-4-cyclopropylbenzoic acid], the IC50 is less than 500 nM.

As to `CCc1ccc(C(=O)O)cc1S(=O)(=O)Nc1cc(S(C)(=O)=O)ccc1N1CCC(F)CC1` [Example 317, 4-ethyl-3-(N-(2-(4-fluoropiperidin-1-yl)-5-(methylsulfonyl)phenyl)sulfamoyl)benzoic acid], the IC50 is less than 500 nM.

`CCc1ccc(C(=O)O)cc1S(=O)(=O)Nc1cc(C#N)ccc1N1CCC(F)CC1` [Example 318, 3-(N-(5-cyano-2-(4-fluoropiperidin-1-yl)phenyl)sulfamoyl)-4-ethylbenzoic acid]: the concentration for half-maximal inhibition (IC50) was less than 500 nM.

On to `CS(=O)(=O)c1ccc(N2CCCC(F)(F)C2)c(NS(=O)(=O)c2cc(C(=O)O)ccc2C2CC2)c1` [Example 319, 4-cyclopropyl-3-(N-(2-(3,3-difluoropiperidin-1-yl)-5-(methylsulfonyl)phenyl)sulfamoyl)benzoic acid], for which the concentration for half-maximal inhibition (IC50) is less than 500 nM.

`CS(=O)(=O)c1ccc(N2CCC(F)CC2)c(NS(=O)(=O)c2cc(C(=O)O)ccc2C2CC2)c1` [Example 320, 4-cyclopropyl-3-(N-(2-(4-fluoropiperidin-1-yl)-5-(methylsulfonyl)phenyl)sulfamoyl)benzoic acid]: the half-maximal inhibitory concentration (IC50) was less than 500 nM.

`CS(=O)(=O)c1ccc(N2CCC[C@@H](F)C2)c(NS(=O)(=O)c2cc(C(=O)O)ccc2C2CC2)c1` [Example 321, I-4-cyclopropyl-3-(N-(2-(3-fluoropiperidin-1-yl)-5-(methylsulfonyl)phenyl)sulfamoyl)benzoic acid]: the 50% inhibitory concentration (IC50) was less than 500 nM.

`N#Cc1ccc(N2CCC(F)CC2)c(NS(=O)(=O)c2cc(C(=O)O)ccc2C2CC2)c1` [Example 322, 3-(N-(5-cyano-2-(4-fluoropiperidin-1-yl)phenyl)sulfamoyl)-4-cyclopropylbenzoic acid]: the concentration for half-maximal inhibition (IC50) is less than 500 nM.

As for `O=C(O)c1ccc(C2CC2)c(S(=O)(=O)Nc2cc(-n3cnnn3)ccc2N2CCCCC2)c1` [Example 323, 4-cyclopropyl-3-(N-(2-(piperidin-1-yl)-5-(tetrazol-1-yl)phenyl)sulfamoyl)benzoic acid], the 50% inhibitory concentration (IC50) was less than 500 nM.

Turning to `N#Cc1cc(NS(=O)(=O)c2cc(C(=O)O)ccc2C2CC2)c(N2CCCCC2)cc1F` [Example 324, 3-(N-(5-cyano-4-fluoro-2-(piperidin-1-yl)phenyl)sulfamoyl)-4-cyclopropylbenzoic acid], the IC50 was less than 500 nM.

Turning to `O=C(O)c1ccc(C2CC2)c(S(=O)(=O)Nc2cc(-n3cnnn3)ccc2N2CC(O)C2)c1` [Example 325, 4-cyclopropyl-3-(N-(2-(3-hydroxyazetidin-1-yl)-5-(tetrazol-1-yl)phenyl)sulfamoyl)benzoic acid], the IC50 was less than 500 nM.

Regarding `N#Cc1ccc(N2CCC(C#N)CC2)c(NS(=O)(=O)c2cc(C(=O)O)ccc2C2CC2)c1` [Example 326, 3-(N-(5-cyano-2-(4-cyanopiperidin-1-yl)phenyl)sulfamoyl)-4-cyclopropylbenzoic acid], the IC50 is less than 500 nM.

As for `N#Cc1cc(NS(=O)(=O)c2cc(C(=O)O)ccc2C2CC2)c(N2CCCCC2)cc1Cl` [Example 327, 3-(N-(4-chloro-5-cyano-2-(piperidin-1-yl)phenyl)sulfamoyl)-4-cyclopropylbenzoic acid], the concentration for half-maximal inhibition (IC50) was less than 500 nM.

Take `C[C@@H]1C[C@H](C)CN(c2ccc(C#N)cc2NS(=O)(=O)c2cc(C(=O)O)ccc2C2CC2)C1` [Example 328, 3-(N-(5-cyano-2-(cis-3,5-dimethylpiperidin-1-yl)phenyl)sulfamoyl)-4-cyclopropylbenzoic acid]: the IC50 is less than 500 nM.

Consider `NS(=O)(=O)c1ccc(N2CCCCC2)c(NS(=O)(=O)c2cc(C(=O)O)ccc2C2CC2)c1` [Example 329, 4-cyclopropyl-3-(N-(2-(piperidin-1-yl)-5-sulfamoylphenyl)sulfamoyl)benzoic acid], for which the concentration for half-maximal inhibition (IC50) was less than 500 nM.

As for `N#Cc1ccc(N2CCCCC2)c(NS(=O)(=O)c2cc(C(=O)O)ccc2C2CCC2)c1` [Example 330, 3-(N-(5-cyano-2-(piperidin-1-yl)phenyl)sulfamoyl)-4-cyclobutylbenzoic acid], the IC50 is less than 500 nM.
